Assay results as given in patent US20240109917A1 (ACTELION PHARMACEUTICALS LTD, priority 2020, published 2024).

Experiments:
[1] = molecular target: Tb-labeled inactive PDGFRβ (Homo sapiens (Human), UniProt P09619); assay: PDGFRβ LanthaScreen Assay; type: binding; conditions: read-out: PDGFR Lantha IC50
VEGFR2, unphosphorylated = VEGFR2, unphosphorylated (Homo sapiens (Human), UniProt P35968); assay: VEGFR ADP GLO Assay; type: biochemical
VEGFR2, unphosphorylated, sequence (P35968 20-1356): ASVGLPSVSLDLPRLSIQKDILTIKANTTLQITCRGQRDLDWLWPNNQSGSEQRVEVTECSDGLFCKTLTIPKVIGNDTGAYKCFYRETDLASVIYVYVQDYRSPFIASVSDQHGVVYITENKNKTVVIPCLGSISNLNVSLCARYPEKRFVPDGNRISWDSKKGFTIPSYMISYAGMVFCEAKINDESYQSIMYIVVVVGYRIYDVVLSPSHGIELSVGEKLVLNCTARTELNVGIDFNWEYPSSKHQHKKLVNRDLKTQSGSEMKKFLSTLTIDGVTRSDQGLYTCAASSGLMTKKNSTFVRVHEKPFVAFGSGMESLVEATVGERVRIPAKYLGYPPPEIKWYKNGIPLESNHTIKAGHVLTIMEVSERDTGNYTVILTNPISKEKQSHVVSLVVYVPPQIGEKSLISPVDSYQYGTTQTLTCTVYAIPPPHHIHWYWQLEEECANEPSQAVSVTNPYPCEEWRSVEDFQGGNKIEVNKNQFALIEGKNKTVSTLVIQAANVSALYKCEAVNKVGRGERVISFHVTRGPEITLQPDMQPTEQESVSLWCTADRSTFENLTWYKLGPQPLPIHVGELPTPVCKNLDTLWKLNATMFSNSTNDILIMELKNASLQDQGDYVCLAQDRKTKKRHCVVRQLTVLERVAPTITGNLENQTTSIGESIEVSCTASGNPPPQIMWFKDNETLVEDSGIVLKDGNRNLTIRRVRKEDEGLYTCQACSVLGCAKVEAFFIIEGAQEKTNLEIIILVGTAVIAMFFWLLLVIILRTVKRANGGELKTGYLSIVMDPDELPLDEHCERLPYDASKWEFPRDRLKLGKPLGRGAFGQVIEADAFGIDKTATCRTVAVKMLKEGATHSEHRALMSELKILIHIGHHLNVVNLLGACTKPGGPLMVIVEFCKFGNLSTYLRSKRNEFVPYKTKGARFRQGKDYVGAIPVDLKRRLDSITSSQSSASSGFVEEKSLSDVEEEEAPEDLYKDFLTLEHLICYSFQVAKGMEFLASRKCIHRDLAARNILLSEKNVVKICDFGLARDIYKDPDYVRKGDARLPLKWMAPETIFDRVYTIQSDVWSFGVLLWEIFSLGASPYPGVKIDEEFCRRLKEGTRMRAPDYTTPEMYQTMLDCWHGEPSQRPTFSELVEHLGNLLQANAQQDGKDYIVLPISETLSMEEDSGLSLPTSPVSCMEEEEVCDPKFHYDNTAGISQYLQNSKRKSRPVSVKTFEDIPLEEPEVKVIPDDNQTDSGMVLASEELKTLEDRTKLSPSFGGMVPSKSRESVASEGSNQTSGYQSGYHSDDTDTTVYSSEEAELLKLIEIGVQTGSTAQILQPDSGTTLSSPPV

Tb-labeled inactive PDGFRβ, sequence (P09619 33-1106): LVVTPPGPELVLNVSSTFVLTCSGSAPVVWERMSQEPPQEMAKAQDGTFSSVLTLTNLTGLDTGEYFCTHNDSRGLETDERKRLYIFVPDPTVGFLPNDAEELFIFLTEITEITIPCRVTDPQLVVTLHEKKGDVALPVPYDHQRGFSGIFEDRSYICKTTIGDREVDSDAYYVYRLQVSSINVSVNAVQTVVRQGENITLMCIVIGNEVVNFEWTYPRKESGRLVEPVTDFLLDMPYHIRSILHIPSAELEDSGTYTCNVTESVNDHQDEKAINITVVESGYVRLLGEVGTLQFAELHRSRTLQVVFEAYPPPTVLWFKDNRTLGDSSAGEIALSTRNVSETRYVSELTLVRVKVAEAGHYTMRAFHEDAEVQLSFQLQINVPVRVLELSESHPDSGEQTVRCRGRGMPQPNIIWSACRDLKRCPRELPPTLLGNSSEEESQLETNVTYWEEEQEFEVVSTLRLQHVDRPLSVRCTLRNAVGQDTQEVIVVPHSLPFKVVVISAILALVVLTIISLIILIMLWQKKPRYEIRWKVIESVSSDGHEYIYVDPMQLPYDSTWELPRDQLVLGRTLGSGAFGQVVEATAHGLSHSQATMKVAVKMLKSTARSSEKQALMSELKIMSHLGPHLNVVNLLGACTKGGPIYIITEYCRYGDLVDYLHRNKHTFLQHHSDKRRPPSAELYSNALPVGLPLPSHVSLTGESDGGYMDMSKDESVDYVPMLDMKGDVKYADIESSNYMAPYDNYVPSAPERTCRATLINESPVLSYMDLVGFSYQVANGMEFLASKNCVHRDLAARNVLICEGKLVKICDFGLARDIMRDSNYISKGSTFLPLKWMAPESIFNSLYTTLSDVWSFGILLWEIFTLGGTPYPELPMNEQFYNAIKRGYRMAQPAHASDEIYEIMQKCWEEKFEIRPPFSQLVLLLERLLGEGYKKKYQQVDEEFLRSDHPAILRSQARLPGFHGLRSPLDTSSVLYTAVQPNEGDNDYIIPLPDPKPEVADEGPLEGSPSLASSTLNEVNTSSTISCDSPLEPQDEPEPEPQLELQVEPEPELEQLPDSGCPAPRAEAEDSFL

Row | SMILES | IC50 [1] [nM] | IC50 (VEGFR2, unphosphorylated) [nM]
1 | Cc1ncc(NC(=O)CCCN2CCC[C@@H]2C)cc1NC(=O)c1cnn2cc(-c3cnn(C)c3)sc12 [Example 106, (S)-2-(1-methyl-1H-pyrazol-4-yl)-N-(2-methyl-5-(4-(2-methylpyrrolidin-1-yl)butanamido)pyridin-3-yl)pyrazolo[5,1-b]thiazole-7-carboxamide] | 67 | > 7500
2 | Cc1ncc(C(=O)NCCN2CC3CCC2CC3)cc1NC(=O)c1cnn2cc(-c3ccncc3)sc12 [Example 148, N-(5-((2-(2-azabicyclo[2.2.2]octan-2-yl)ethyl)carbamoyl)-2-methylpyridin-3-yl)-2-(pyridin-4-yl)pyrazolo[5,1-b]thiazole-7-carboxamide] | 4.2 | > 7500
3 | Cc1ncc(C(=O)NCCN2CC3CCC2CC3)cc1NC(=O)c1cnn2cc(-c3cccnc3)sc12 [Example 149, N-(5-((2-(2-azabicyclo[2.2.2]octan-2-yl)ethyl)carbamoyl)-2-methylpyridin-3-yl)-2-(pyridin-3-yl)pyrazolo[5,1-b]thiazole-7-carboxamide] | 5 | > 7500
4 | COCCN(CCNC(=O)c1cnc(C)c(NC(=O)c2cnn3cc(-c4cnn(C)c4)sc23)c1)C(C)C [Example 127, N-(5-((2-(isopropyl(2-methoxyethyl)amino)ethyl)carbamoyl)-2-methylpyridin-3-yl)-2-(1-methyl-1H-pyrazol-4-yl)pyrazolo[5,1-b]thiazole-7-carboxamide] | 6 | > 7500
5 | Cc1ncc(C(=O)NCCN2CC(C)(C)C2)cc1NC(=O)c1cnn2cc(-c3cn(C)cn3)sc12 [Example 161] | 11.9 | > 7500
6 | Cc1ncc(C(=O)NCCN2CCC3(CC3)C2)cc1NC(=O)c1cnn2cc(-c3ccccn3)sc12 [Example 160, N-(5-((2-(5-azaspiro[2.4]heptan-5-yl)ethyl)carbamoyl)-2-methylpyridin-3-yl)-2-(pyridin-2-yl)pyrazolo[5,1-b]thiazole-7-carboxamide] | 4.4 | > 7500
7 | Cc1ncc(NC(=O)CCN2CCCC2(C)C)cc1NC(=O)c1cnn2cc(-c3cnn(C)c3)sc12 [Example 10, N-(5-(3-(2,2-dimethylpyrrolidin-1-yl)propanamido)-2-methyl-pyridin-3-yl)-2-(1-methyl-1H-pyrazol-4-yl)pyrazolo[5,1-b]thiazole-7-carboxamide] | 2.8 | > 7500
8 | Cc1ncc(C(=O)NCCN2CC3CCC2CC3)cc1NC(=O)c1cnn2cc(-c3cn(C)nc3C)sc12 [Example 178, N-(5-((2-(2-azabicyclo[2.2.2]octan-2-yl)ethyl)carbamoyl)-2-methylpyridin-3-yl)-2-(1,3-dimethyl-1H-pyrazol-4-yl)pyrazolo[5,1-b]thiazole-7-carboxamide] | 1.8 | > 7500
9 | Cc1ncc(C(=O)NCCN2CC3CCC2CC3)cc1NC(=O)c1cnn2cc(-c3cnn(CC(N)=O)c3)sc12 [Example 150, N-(5-((2-(2-azabicyclo[2.2.2]octan-2-yl)ethyl)carbamoyl)-2-methylpyridin-3-yl)-2-(1-(2-amino-2-oxoethyl)-1H-pyrazol-4-yl)pyrazolo[5,1-b]thiazole-7-carboxamide] | 5.5 | > 7500
10 | Cc1ncc(C(=O)NCCN2CCC23CCC3)cc1NC(=O)c1cnn2cc(-c3cn(C)nc3C)sc12 [Example 175, N-(5-((2-(1-azaspiro[3.3]heptan-1-yl)ethyl)carbamoyl)-2-methylpyridin-3-yl)-2-(1,3-dimethyl-1H-pyrazol-4-yl)pyrazolo[5,1-b]thiazole-7-carboxamide] | 3.8 | > 7500
11 | Cc1ncc(C(=O)NCCN2CCCC2(C)C)cc1NC(=O)c1cnn2cc(-c3cnn(C4CC4)c3)sc12 [Example 6, 2-(1-cyclopropyl-1H-pyrazol-4-yl)-N-(5-((2-(2,2-dimethylpyrrolidin-1-yl)ethyl)carbamoyl)-2-methylpyridin-3-yl)pyrazolo[5,1-b]thiazole-7-carboxamide] | 4.7 | > 7500
